Residues, ends and D or L forms follow the SMILES beside them.
Key:
[1] = cited from earlier work; for times sweeter than sucrose: prior art value, weight to weight stated for formula 1
[2] = Sweetness relative to sucrose, compounds tasted in aqueous solution; details: for Sweetness (x sucrose w/w): Table I, diastereomeric mixtures of L-aspartyl-3-(bicycloalkyl) D,L-alanine methyl esters
Description: The 2R-endo- and 2R-exo-fenchyl esters described by Fujino, cited above, have sweetness of high intensity.
In Table I, the reported sweetness is measured for diastereomeric mixtures. The sweetness of each optically pure compound according to the invention will differ from the sweetness of the mixture.
The sweetness values of each compound shown in Table I correspond to a mixture of optical isomers, whose maximum theoretical number of isomers is listed. In order to evaluate the sweetness of different isomeric forms, four pairs of optical isomers of one of the novel compounds were synthesized. Each pair differed from the others only in the stereochemistry of the bicyclic camphor ring.

Compound: CC12CCC(C1)C(C)(C)C2OC(=O)C(NC(=O)C(N)CC(=O)O)c1ccccc1 (stereo not drawn) [2R, exo-fenchyl ester]
- sweetness intensity (in words) ([1]; prior art fenchyl esters): high sweetness intensities

Compound: COC(=O)C(CC1CC2CCC1C2)NC(=O)[C@@H](N)CC(=O)O (stereo partly drawn) [(R,S)endo norbornyl, L-Aspartyl-D,L-(endo-R,S-norbornyl)-3-alanine methyl ester]
- Sweetness (x sucrose w/w) [2]: 290 x sucrose w/w

Compound: COC(=O)C(CC1CC2CCC1C2)NC(=O)C(N)CC(=O)O [(R,S)exo norbornyl]
- Sweetness (x sucrose w/w) [2]: 200 x sucrose w/w

Compound: COC(=O)C(NC(=O)[C@@H](N)CC(=O)O)C(=O)OC1C2(C)CCC(C2)C1(C)C (stereo partly drawn) [L-aspartyl-2-amino malonyl methyl fenchyl diester]
- times sweeter than sucrose [1]: 20,000 times sweeter than sucrose

Compound: COC(=O)[C@H](Cc1ccccc1)NC(=O)[C@@H](N)CC(=O)O [L-aspartyl-L-phenylalanine methyl ester] (H-Asp-Phe-OMe)
- times sweeter than sucrose [1]: about 180 times sweeter than sucrose

Compound: COC(=O)C(CC1CC2CCC1C2)NC(=O)[C@@H](N)CC(=O)O (stereo partly shown) [norbornyl]
- Sweetness (x sucrose w/w) [2]: 225 x sucrose w/w

Compound: (alpha-carboxy) glycyl-3-norbornylalanine methyl ester
- sweetness (in words) ([2]; formula 4 tasted in aqueous solution): intensely sweet

Reference: patent publication US4788069A (The Coca-Cola Company, priority 1987, dated 1988)
